Measurements from patent US12655116B2, “Substituted isophthalic acid diamides” (Bayer Aktiengesellschaft, priority 2020, dated 2026).

Tests used:
AMARE [1] = assay: Post-emergence herbicidal action against AMARE; format: in vivo, Amaranthus retroflexus; conditions: Amaranthus retroflexus, 504 h, 20 g/ha, visual assessment about 3 weeks after treatment, 100% = plants have died, 0% = like control plants
Procedure, shortened: (§1)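 Post-emergence greenhouse test; one-leaf stage, 2–3 wk post-sowing, sandy loam. Foliar spray of WP/EC in water, 600–800 l/ha, +0.2% wetting agent. Visual % action at ~3 wk vs untreated (100% = plants dead).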

AVEFA [2] = assay: Pre-emergence herbicidal action against AVEFA; format: in vivo, Avena fatua; conditions: Avena fatua, 504 h, pre-emergence; for pest or weed control at 20 g/ha: scored visually after 3 weeks, 100% = plants have died, 0% = like control plants
Procedure, shortened: (§2)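 Herbicidal effect was assessed 3 weeks after treatment by visual comparison with untreated controls, 100% denoting dead plants. Aqueous WP or EC preparations had been applied at 600 to 800 l/ha with 0.2% wetting agent to the soil covering freshly sown seeds.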

ABUTH [3] = assay: Post-emergence herbicidal action against ABUTH; format: in vivo, Abutilon theophrasti; conditions: Abutilon theophrasti, 504 h, visual assessment about 3 weeks after treatment vs untreated controls; for pest or weed control at 5 g/ha: dosage 5 g/ha; for pest or weed control at 20 g/ha: dosage 20 g/ha
Procedure, shortened: as §1

HORMU = assay: Pre-emergence herbicidal action against HORMU; format: in vivo, Hordeum murinum; conditions: for pest or weed control at 80 g/ha: Hordeum murinum, 504 h, pre-emergence
Procedure, shortened: as §2

POLCO [4] = assay: Post-emergence herbicidal action against POLCO; format: in vivo, Polygonum convolvulus; conditions: Fallopia convolvulus, 504 h, dosage 20 g/ha
Procedure, shortened: as §1

ALOMY [5] = assay: Pre-emergence herbicidal action against ALOMY; format: in vivo, Alopecurus myosuroides; conditions: Alopecurus myosuroides, 504 h, pre-emergence; for pest or weed control at 80 g/ha: scored visually after 3 weeks vs untreated controls (100% = plants have died, 0% = like control plants); for pest or weed control at 20 g/ha: scored visually after 3 weeks, 100% = plants have died, 0% = like control plants
Procedure, shortened: as §2

ECHCG [6] = assay: Post-emergence herbicidal action against ECHCG; format: in vivo, Echinochloa crus-galli; conditions: Echinochloa crus-galli, 504 h, dosage 20 g/ha
Procedure, shortened: as §1

VIOTR [7] = assay: Post-emergence herbicidal action against VIOTR; format: in vivo, Viola tricolor; conditions: Viola tricolor, 504 h
Procedure, shortened: as §1

STEME [8] = assay: Post-emergence herbicidal action against STEME; format: in vivo, Stellaria media; conditions: Stellaria media, 504 h; for pest or weed control at 5 g/ha: dosage 5 g/ha
Procedure, shortened: as §1

SETVI [9] = assay: Pre-emergence herbicidal action against SETVI; format: in vivo, Setaria viridis; conditions: Setaria viridis, 504 h; for pest or weed control at 20 g/ha: dosage 20 g/ha; for pest or weed control at 80 g/ha: dosage 80 g/ha
Procedure, shortened: as §2

MATIN [10] = assay: Pre-emergence herbicidal action against MATIN; format: in vivo, Matricaria inodora; conditions: Tripleurospermum inodorum, 504 h; for pest or weed control at 20 g/ha: dosage 20 g/ha; for pest or weed control at 80 g/ha: dosage 80 g/ha
Procedure, shortened: as §2

ECHCG [11] = assay: Pre-emergence herbicidal action against ECHCG; format: in vivo, Echinochloa crus-galli; conditions: Echinochloa crus-galli, 504 h
Procedure, shortened: as §2

DIGSA [12] = assay: Pre-emergence herbicidal action against DIGSA; format: in vivo, Digitaria sanguinalis; conditions: Digitaria sanguinalis, 504 h; for pest or weed control at 20 g/ha: dosage 20 g/ha; for pest or weed control at 80 g/ha: dosage 80 g/ha
Procedure, shortened: as §2

LOLRI = assay: Pre-emergence herbicidal action against LOLRI; format: in vivo, Lolium rigidum; conditions: Lolium rigidum, 504 h, 80 g/ha
Procedure, shortened: as §2

VIOTR [13] = assay: Pre-emergence herbicidal action against VIOTR; format: in vivo, Viola tricolor; conditions: Viola tricolor, 504 h; for pest or weed control at 20 g/ha: dosage 20 g/ha; for pest or weed control at 80 g/ha: dosage 80 g/ha
Procedure, shortened: as §2

DIGSA [14] = assay: Post-emergence herbicidal action against DIGSA; format: in vivo, Digitaria sanguinalis; conditions: Digitaria sanguinalis, 504 h
Procedure, shortened: as §1

ALOMY [15] = assay: Post-emergence herbicidal action against ALOMY; format: in vivo, Alopecurus myosuroides; conditions: Alopecurus myosuroides, 504 h, dosage 20 g/ha, visual assessment about 3 weeks after treatment vs untreated controls
Procedure, shortened: as §1

ABUTH [16] = assay: Pre-emergence herbicidal action against ABUTH; format: in vivo, Abutilon theophrasti; conditions: Abutilon theophrasti, 504 h; for pest or weed control at 80 g/ha: scored visually after 3 weeks vs untreated controls (100% = plants have died, 0% = like control plants); for pest or weed control at 20 g/ha: dosage 20 g/ha, scored visually after 3 weeks vs untreated controls, 100% = plants have died, 0% = like control plants, read-out: Pre-emergence action against ABUTH (herbicidal activity in percent)
Procedure, shortened: as §2

STEME [17] = assay: Pre-emergence herbicidal action against STEME; format: in vivo, Stellaria media; conditions: Stellaria media, 504 h; for pest or weed control at 20 g/ha: dosage 20 g/ha; for pest or weed control at 80 g/ha: dosage 80 g/ha
Procedure, shortened: as §2

VERPE [18] = assay: Pre-emergence herbicidal action against VERPE; format: in vivo, Veronica persica; conditions: Veronica persica, 504 h, dosage 80 g/ha
Procedure, shortened: as §2

MATIN [19] = assay: Post-emergence herbicidal action against MATIN; format: in vivo, Matricaria inodora; conditions: Tripleurospermum inodorum, 504 h, dosage 20 g/ha
Procedure, shortened: as §1

AMARE [20] = assay: Pre-emergence herbicidal action against AMARE; format: in vivo, Amaranthus retroflexus; conditions: Amaranthus retroflexus, 504 h, scored visually after 3 weeks vs untreated controls, 100% = plants have died, 0% = like control plants
Procedure, shortened: as §2

AVEFA [21] = assay: Post-emergence herbicidal action against AVEFA; format: in vivo, Avena fatua; conditions: Avena fatua, 504 h, 20 g/ha, visual assessment about 3 weeks after treatment, 100% = plants have died, 0% = like control plants
Procedure, shortened: as §1

SETVI [22] = assay: Post-emergence herbicidal action against SETVI; format: in vivo, Setaria viridis; conditions: Setaria viridis, 504 h
Procedure, shortened: as §1

PHBPU = assay: Post-emergence herbicidal action against PHBPU; format: in vivo, Pharbitis purpurea; conditions: Ipomoea purpurea, 504 h, dosage 20 g/ha
Procedure, shortened: as §1

VERPE [23] = assay: Post-emergence herbicidal action against VERPE; format: in vivo, Veronica persica; conditions: Veronica persica, 504 h
Procedure, shortened: as §1

POLCO [24] = assay: Pre-emergence herbicidal action against POLCO; format: in vivo, Polygonum convolvulus; conditions: Fallopia convolvulus, 504 h, dosage 80 g/ha
Procedure, shortened: as §2

CCNC(=O)c1c(C(F)(F)F)ccc(C(=O)Nc2nnnn2CC)c1Cl [Example 2-130]
80%: pest or weed control at 20 g/ha (POLCO [4]) | pest or weed control at 20 g/ha (ECHCG [6]) | pest or weed control at 20 g/ha (STEME [8]) | pest or weed control at 5 g/ha (STEME [8]) | pest or weed control at 20 g/ha (ECHCG [11]; 20 g/ha) | pest or weed control at 5 g/ha (DIGSA [14]) | pest or weed control at 20 g/ha (DIGSA [14]) | pest or weed control at 20 g/ha (ALOMY [15]) | pest or weed control at 80 g/ha (VERPE [18]) | pest or weed control at 20 g/ha (MATIN [19])
90%: pest or weed control at 20 g/ha (AVEFA [2]) | pest or weed control at 5 g/ha (ABUTH [3]) | pest or weed control at 20 g/ha (ABUTH [3]) | Pre-emergence action against HORMU (HORMU; 20 g/ha, scored visually after 3 weeks, 100% = plants have died, 0% = like control plants) | pest or weed control at 20 g/ha (ALOMY [5]) | pest or weed control at 5 g/ha (VIOTR [7]) | pest or weed control at 20 g/ha (SETVI [9]) | pest or weed control at 20 g/ha (AVEFA [21])
100%: pest or weed control at 20 g/ha (AMARE [1]) | pest or weed control at 80 g/ha (AVEFA [2]) | pest or weed control at 80 g/ha (HORMU) | pest or weed control at 80 g/ha (ALOMY [5]) | pest or weed control at 20 g/ha (VIOTR [7]) | pest or weed control at 80 g/ha (SETVI [9]) | pest or weed control at 20 g/ha (MATIN [10]) | pest or weed control at 80 g/ha (MATIN [10]) | pest or weed control at 80 g/ha (ECHCG [11]) | pest or weed control at 20 g/ha (DIGSA [12]) | pest or weed control at 80 g/ha (DIGSA [12]) | pest or weed control at 80 g/ha (LOLRI) | pest or weed control at 20 g/ha (VIOTR [13]) | pest or weed control at 80 g/ha (VIOTR [13]) | pest or weed control at 80 g/ha (ABUTH [16]) | pest or weed control at 20 g/ha (ABUTH [16]) | pest or weed control at 20 g/ha (STEME [17]) | pest or weed control at 80 g/ha (STEME [17]) | pest or weed control at 20 g/ha (AMARE [20]) | pest or weed control at 80 g/ha (AMARE [20])

Cn1nnnc1NC(=O)c1ccc(C(F)F)c(C(=O)NC2CC2)c1Cl [Example 1-149]
90%: pest or weed control at 20 g/ha (PHBPU) | pest or weed control at 80 g/ha (HORMU) | pest or weed control at 80 g/ha (ALOMY [5]) | pest or weed control at 20 g/ha (STEME [8]) | pest or weed control at 5 g/ha (STEME [8]) | pest or weed control at 20 g/ha (SETVI [9]) | pest or weed control at 80 g/ha (LOLRI) | pest or weed control at 20 g/ha (STEME [17])
100%: pest or weed control at 20 g/ha (AMARE [1]) | pest or weed control at 5 g/ha (SETVI [22]; dosage 5 g/ha) | pest or weed control at 20 g/ha (SETVI [22]; dosage 20 g/ha) | pest or weed control at 80 g/ha (AVEFA [2]) | pest or weed control at 20 g/ha (ABUTH [3]) | pest or weed control at 20 g/ha (POLCO [4]) | pest or weed control at 5 g/ha (VIOTR [7]) | pest or weed control at 20 g/ha (VIOTR [7]) | pest or weed control at 80 g/ha (SETVI [9]) | pest or weed control at 20 g/ha (MATIN [10]) | pest or weed control at 80 g/ha (MATIN [10]) | pest or weed control at 20 g/ha (VERPE [23]; 20 g/ha) | pest or weed control at 80 g/ha (ECHCG [11]) | pest or weed control at 20 g/ha (DIGSA [12]) | pest or weed control at 80 g/ha (DIGSA [12]) | pest or weed control at 20 g/ha (VIOTR [13]) | pest or weed control at 80 g/ha (VIOTR [13]) | pest or weed control at 5 g/ha (DIGSA [14]) | pest or weed control at 20 g/ha (DIGSA [14]) | pest or weed control at 80 g/ha (ABUTH [16]) | pest or weed control at 20 g/ha (ABUTH [16]) | pest or weed control at 80 g/ha (STEME [17]) | pest or weed control at 80 g/ha (VERPE [18]) | pest or weed control at 20 g/ha (MATIN [19]) | pest or weed control at 20 g/ha (AMARE [20]) | pest or weed control at 80 g/ha (AMARE [20]) | pest or weed control at 20 g/ha (AVEFA [21])
80%: pest or weed control at 20 g/ha (AVEFA [2]) | pest or weed control at 5 g/ha (ABUTH [3]) | pest or weed control at 20 g/ha (ALOMY [5]) | pest or weed control at 20 g/ha (ECHCG [6]) | pest or weed control at 5 g/ha (VERPE [23]; 5 g/ha) | pest or weed control at 20 g/ha (ALOMY [15]) | pest or weed control at 80 g/ha (POLCO [24])
